According to patent publication US20210392890A1, “COMPOSITIONS COMPRISING PYRIDINE CARBOXYLATE HERBICIDES AND PLANT GROWTH REGULATORS” (Corteva Agriscience LLC, priority 2018, published 2021):
Values joined by “and” are separate entries in the source; they are usually repeats but may differ in a detail not shown here. Identical values can stand only once. Like-named read-outs stand apart in the source and are kept apart here.

Experiments:
Assay type in all cases: in vivo
[1] = tested on: Polygonum convolvulus (wild buckwheat); experiment: Greenhouse postemergence herbicidal effect on POLCO; conditions: for Herbicidal Effects (% visual injury) POLCO Obs: Ethephon 0 g/ha
Description: (§1) Seeds of the desired test plant species were planted in a 90:10% v/v (volume/volume) mixture of PRO-MIX® BX (Premier Tech Horticulture, Quakertown, Pa., USA) and PROFILE® GREENS GRADE™ (Profile Products LLC, Buffalo Grove, Ill., USA) planting mixture, which typically has a pH of 5.2 to 6.2 and an organic matter content of at least 50 percent, in plastic pots with a surface area of 103.2 square centimeters (cm^2). In some aspects, to help ensure good germination and healthy plants, a fungicide treatment and/or other chemical or physical treatment was applied. The plants were grown for 7-36 days (d) in a greenhouse with an approximate 14-hour (h) photoperiod which was maintained at about 23° C. during the day and 22° C. during the night. Nutrients and water were added on a regular basis and supplemental lighting was provided with overhead metal halide 1000-Watt lamps as necessary. The plants were employed for testing when they reached the second or third true leaf stage.
(§2) Emulsifiable concentrates of each of each pyridine carboxylate herbicide (Compound A or Compound B) were prepared at 100 grams acid equivalent per liter (g ae/L). The emulsifiable concentrates also included a safener, cloquintocet-mexyl, at 120 grams active ingredient per liter (g ai/L). An aliquot of each emulsifiable concentrate was placed in a 25 mL glass vial and diluted with an aqueous mixture of 1.25% (v/v) ACTIROB® B esterified rapeseed oil (Bayer Crop Science, Research Triangle Park, N.C., USA) or MSO® Concentrate with LECI-TECH® methylated soybean oil (Loveland Products, Loveland, Colo., USA) to obtain concentrated stock solutions at the highest application rate for each herbicide, based upon a 12 milliliter (mL) application volume at a rate of 187 liters per hectare (L/ha). The concentrated stock solutions were further diluted with an aqueous mixture of 1.25% v/v ACTIROB® B or MSO® Concentrate with LECI-TECH® to obtain stock solutions at reduced application rates for each herbicide. Spray solutions of the herbicide combinations (Compound A or Compound B plus the PGR) were prepared by adding weighed amounts or aliquots of the PGR to the stock solutions of Compound A or Compound B to form 12-mL spray solutions in two-way combinations.
(§3) The spray solutions were applied to the plant material with an overhead Mandel track sprayer equipped with 8002E nozzles calibrated to deliver 187 L/ha over an application area of 0.503 square meters (m^2) at a spray height of 18 inches (43 centimeters (cm)) above the average plant canopy. Control plants were sprayed in the same manner with the solvent blank. All pyridine carboxylate herbicide (component a) application rates are given as “g ae/ha” and all PGR (component b) application rates are given as “g ai/ha.”
(§4) The treated plants and control plants were placed in a greenhouse as described above and watered by sub-irrigation to prevent wash-off of the test compounds. After 20-22 d, the condition of the test plants as compared with that of the control plants was determined visually and scored on a scale of 0 to 100 percent where 0 corresponds to no injury and 100 corresponds to complete kill.

[2] = tested on: Matricaria inodora (scentless chamomile); experiment: Greenhouse postemergence herbicidal effect on MATIN
Description: as §1
(§5) Emulsifiable concentrates of each of each pyridine carboxylate herbicide (Compound A or Compound B) were prepared at 100 grams acid equivalent per liter (g ae/L). The emulsifiable concentrates also included a safener, cloquintocet-mexyl, at 120 grams active ingredient per liter (g ai/L). […]
as §4

[3] = tested on: Lamium purpureum (purple deadnettle); experiment: Greenhouse postemergence herbicidal effect on LAMPU
Description: as §1, §5, §4

[4] = tested on: Stellaria media (chickweed); experiment: Greenhouse postemergence herbicidal effect on STEME; conditions: for Herbicidal Effects (% visual injury) STEME Obs: Ethephon 0 g/ha
Description: as §1, §2, §3, §4

[5] = tested on: Helianthus annuus (common sunflower); experiment: Greenhouse postemergence herbicidal effect on HELAN; conditions: for Herbicidal Effects (% visual injury) HELAN Obs: Ethephon 0 g/ha
Description: as §1, §2, §3, §4

[6] = tested on: Anthemis arvensis (corn chamomile); experiment: Greenhouse postemergence herbicidal effect on ANTAR
Description: as §1, §5, §4

[7] = tested on: Cyperus esculentus (yellow nutsedge); experiment: Greenhouse postemergence herbicidal effect on CYPES; conditions: Ethephon 0 g/ha
Description: as §1, §5
The treated plants and control plants were placed in a greenhouse as described above and watered by sub-irrigation to prevent wash-off of the test compounds. After 20-22 d, the condition of the test plants as compared with that of the control plants was determined visually and scored on a scale of 0 to 100 percent where 0 corresponds to no injury and 100 corresponds to complete kill. […]

[8] = tested on: Cyanus segetum (cornflower); experiment: Greenhouse postemergence herbicidal effect on CENCY
Description: as §1, §5, §4

[9] = tested on: Brassica napus (spring rape); experiment: Greenhouse postemergence herbicidal effect on BRSNN; conditions: for Herbicidal Effects (% visual injury) BRSNN Obs: Ethephon 0 g/ha
Description: as §1, §2, §3, §4

[10] = tested on: Veronica persica (Persian speedwell); experiment: Greenhouse postemergence herbicidal effect on VERPE
Description: as §1, §5, §4

[11] = tested on: Hordeum vulgare (winter barley)
Description: as §1, §2, §3, §4

[12] = tested on: Triticum aestivum (winter wheat)
Description: as §1, §2, §3, §4

[13] = tested on: Sorghum vulgare (grain sorghum); conditions: for Herbicidal Effects (% visual injury) SORVU Obs: Ethephon 0 g/ha
Description: as §1, §2, §3, §4

Zea mays (maize) = conditions: for Herbicidal Effects (% visual injury) ZEAMX Obs: Ethephon 0 g/ha
Description: as §1, §2, §3, §4

[14] = tested on: Hordeum vulgare (spring barley)
Description: as §1, §2, §3, §4

[15] = tested on: Matricaria discoidea (pineapple weed); experiment: Greenhouse postemergence herbicidal effect on MATMT
Description: as §1, §5, §4

Compound: N#CCOC(=O)c1nc(-c2ccc3cc[nH]c3c2F)c(F)c(N)c1Cl [Compound A, cyanomethyl 4-amino-3-chloro-5-fluoro-6-(7-fluoro-1H-indol-6-yl)pyridine-2-carboxylate]
- Herbicidal Effects (% visual injury) POLCO Obs ([1]; Compound A 7.5 g/ha): 100%
- Herbicidal Effects (% visual injury) POLCO Obs ([1]; Compound A 10 g/ha): 100%
- % visual injury Obs ([1]; herbicide 7.5 g ae/ha alone): 68% and 83% and 65%
- % visual injury Obs ([1]; herbicide 10 g ae/ha alone): 70% and 93% and 78%
- % visual injury Obs ([1]; herbicide 15 g ae/ha alone): 85%
- % visual injury Obs ([2]; herbicide 7.5 g ae/ha alone): 55%
- % visual injury Obs ([2]; herbicide 10 g ae/ha alone): 60%
- % visual injury Obs ([2]; herbicide 15 g ae/ha alone): 83%
- % visual injury Obs ([3]; herbicide 7.5 g ae/ha alone): 68%
- % visual injury Obs ([3]; herbicide 10 g ae/ha alone): 73%
- % visual injury Obs ([3]; herbicide 15 g ae/ha alone): 73%
- Herbicidal Effects (% visual injury) STEME Obs ([4]; Compound A 7.5 g/ha): 100%
- Herbicidal Effects (% visual injury) STEME Obs ([4]; Compound A 10 g/ha): 100%
- % visual injury Obs ([4]; herbicide 7.5 g ae/ha alone): 89% and 85%
- % visual injury Obs ([4]; herbicide 10 g ae/ha alone): 90% and 88%
- % visual injury Obs ([4]; herbicide 15 g ae/ha alone): 89%
- Herbicidal Effects (% visual injury) HELAN Obs ([5]; Compound A 7.5 g/ha): 100%
- Herbicidal Effects (% visual injury) HELAN Obs ([5]; Compound A 10 g/ha): 93%
- % visual injury Obs ([5]; herbicide 7.5 g ae/ha alone): 83% and 90%
- % visual injury Obs ([5]; herbicide 10 g ae/ha alone): 88% and 89%
- % visual injury Obs ([6]; herbicide 7.5 g ae/ha alone): 68%
- % visual injury Obs ([6]; herbicide 10 g ae/ha alone): 70%
- % visual injury Obs ([6]; herbicide 15 g ae/ha alone): 88%
- Herbicidal Effects (% visual injury) CYPES Obs ([7]; Compound A 7.5 g/ha): 58%
- Herbicidal Effects (% visual injury) CYPES Obs ([7]; Compound A 10 g/ha): 38%
- % visual injury Obs ([8]; herbicide 7.5 g ae/ha alone): 75%
- % visual injury Obs ([8]; herbicide 10 g ae/ha alone): 78%
- % visual injury Obs ([8]; herbicide 15 g ae/ha alone): 80%
- Herbicidal Effects (% visual injury) BRSNN Obs ([9]; Compound A 7.5 g/ha): 45%
- Herbicidal Effects (% visual injury) BRSNN Obs ([9]; Compound A 10 g/ha): 55%
- % visual injury Obs ([9]; herbicide 7.5 g ae/ha alone): 65%
- % visual injury Obs ([9]; herbicide 10 g ae/ha alone): 65%
- % visual injury Obs ([10]; herbicide 7.5 g ae/ha alone): 78%
- % visual injury Obs ([10]; herbicide 10 g ae/ha alone): 90%
- % visual injury Obs ([10]; herbicide 15 g ae/ha alone): 93%
- % visual injury Obs ([11]; herbicide 7.5 g ae/ha alone): 0%
- % visual injury Obs ([11]; herbicide 10 g ae/ha alone): 0%
- % visual injury Obs ([11]; herbicide 15 g ae/ha alone): 0%
- % visual injury Obs ([12]; herbicide 7.5 g ae/ha alone): 0%
- % visual injury Obs ([12]; herbicide 10 g ae/ha alone): 0%
- % visual injury Obs ([12]; herbicide 15 g ae/ha alone): 0%
- Herbicidal Effects (% visual injury) SORVU Obs ([13]; Compound A 7.5 g/ha): 8%
- Herbicidal Effects (% visual injury) SORVU Obs ([13]; Compound A 10 g/ha): 8%
- % visual injury Obs ([13]; herbicide 7.5 g ae/ha alone): 0%
- % visual injury Obs ([13]; herbicide 10 g ae/ha alone): 0%
- Herbicidal Effects (% visual injury) ZEAMX Obs (Zea mays (maize); Compound A 7.5 g/ha): 0%
- Herbicidal Effects (% visual injury) ZEAMX Obs (Zea mays (maize); Compound A 10 g/ha): 5%
- % visual injury Obs (Zea mays (maize); herbicide 7.5 g ae/ha alone): 0%
- % visual injury Obs (Zea mays (maize); herbicide 10 g ae/ha alone): 0%
- % visual injury Obs ([14]; herbicide 7.5 g ae/ha alone): 0%
- % visual injury Obs ([14]; herbicide 10 g ae/ha alone): 0%
- % visual injury Obs ([14]; herbicide 15 g ae/ha alone): 0%
- % visual injury Obs ([15]; herbicide 7.5 g ae/ha alone): 20%
- % visual injury Obs ([15]; herbicide 10 g ae/ha alone): 20%
- % visual injury Obs ([15]; herbicide 15 g ae/ha alone): 63%
